Holding throughout (format): biochemical
The target of one assay is T1, urokinase (Homo sapiens, UniProt P00749).
T1 construct: human high molecular weight urokinase; purchased American Diagnostica, Greenwich, Conn
In words: Urokinase Indirect (Plasminogen-Linked) Assay. Conditions: Table 3 column 4, simple number, unit inferred; read-out: uPA Indirect (plasminogen-linked) IC50.

Another assay has as its target T2, human two-chain tPA (Homo sapiens, UniProt P00750).
T2 construct: human two-chain tPA was substituted for urokinase; purchased American Diagnostica
In words: tPA Indirect (Plasminogen-Linked) Assay (tPA Direct Assay result where lower). Conditions: for tPA/UPA ratio: ratio with respect to urokinase indirect plasminogen-linked IC50, larger = greater specificity for urokinase; for IC50: tPA Indirect Plasminogen-Linked Assay, in rare cases direct assay result if lower, read-out: tPA IC50. From the text: (iv) Both direct and plasminogen-linked pNA assays for tPA, the other mammalian plasminogen activator and the key initiator of blood clot dissolution or fibrinolysis. Since urokinase and tPA share an absolute specificity for the same peptide bond in plasminogen, urokinase inhibitors designed to block cellular invasiveness must be highly specific for urokinase over tPA in order to avoid serious thrombotic side effects secondary to undesired blockage of normal fibrinolysis. […] Spectrozyme tPA®, American Diagnostica) was substituted for urokinase substrate.

A further assay has as its target T3, human plasmin (Homo sapiens, UniProt P00747).
T3 construct: plasmin, the potent general protease produced by cleavage of plasminogen by either urokinase or tPA; purchased American Diagnostica
In words: Plasmin Assay. Conditions: for PLM/uPA ratio: ratio with respect to urokinase indirect plasminogen-linked IC50, larger = greater specificity for urokinase; for IC50: read-out: PLASMIN IC50; for inhibition at 1000 µM: read-out: PLASMIN activity observed relative to inhibitor-free controls. As to the method: (v) A chromogenic pNA assay for plasmin, the potent general protease produced by cleavage of plasminogen by either urokinase or tPA. Although urokinase initiates cellular invasiveness by generating plasmin, the additional importance of plasmin in tPA-mediated fibrinolysis dictates that plasmin itself should be free from inhibition by urokinase inhibitors designed as anti-invasiveness agents. […] All other assay conditions, as well as methods of color quantitation, were carried out as described above for the urokinase direct assay.

In assay [1] the target is T4, human high molecular weight urokinase (Homo sapiens, UniProt P00749).
T4 construct: human high molecular weight urokinase; purchased American Diagnostica, Greenwich, Conn
In words: Urokinase Direct Assay. Conditions: read-out: uPA Direct: percentage of residual urokinase activity relative to inhibitor-free controls; heading: uPA Direct: percentage of residual urokinase activity relative to inhibitor-free controls; inhibitor concentration of 1 mM. The protocol: (i) A direct chromogenic assay in which urokinase cleaves a synthetic tripeptide p-nitroanilide (pNA) urokinase substrate.
Incubations were carried out at 37° C. for approximately 2 hours or until adequate yellow color developed. Color was quantitated by measuring absorbance at 405 nm (A405) using a Titertek Multiskan MCC/340 MK II microtiter plate spectrophotometer.

The structures appear in SMILES notation. Where a name gives a salt, the structure may show the parent alone. Read-outs that look alike come from different tables or passages of the source. Bounds are passed on as bounds.

T3 sequence (P00747 581-810 limits assumed): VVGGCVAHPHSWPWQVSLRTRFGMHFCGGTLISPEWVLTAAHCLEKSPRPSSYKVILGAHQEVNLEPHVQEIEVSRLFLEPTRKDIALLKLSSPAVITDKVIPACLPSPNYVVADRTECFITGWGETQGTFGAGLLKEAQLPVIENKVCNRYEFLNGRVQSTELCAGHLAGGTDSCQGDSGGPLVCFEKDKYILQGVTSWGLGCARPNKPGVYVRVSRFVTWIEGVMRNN
T3 sequence (P00747 97-580 limits assumed): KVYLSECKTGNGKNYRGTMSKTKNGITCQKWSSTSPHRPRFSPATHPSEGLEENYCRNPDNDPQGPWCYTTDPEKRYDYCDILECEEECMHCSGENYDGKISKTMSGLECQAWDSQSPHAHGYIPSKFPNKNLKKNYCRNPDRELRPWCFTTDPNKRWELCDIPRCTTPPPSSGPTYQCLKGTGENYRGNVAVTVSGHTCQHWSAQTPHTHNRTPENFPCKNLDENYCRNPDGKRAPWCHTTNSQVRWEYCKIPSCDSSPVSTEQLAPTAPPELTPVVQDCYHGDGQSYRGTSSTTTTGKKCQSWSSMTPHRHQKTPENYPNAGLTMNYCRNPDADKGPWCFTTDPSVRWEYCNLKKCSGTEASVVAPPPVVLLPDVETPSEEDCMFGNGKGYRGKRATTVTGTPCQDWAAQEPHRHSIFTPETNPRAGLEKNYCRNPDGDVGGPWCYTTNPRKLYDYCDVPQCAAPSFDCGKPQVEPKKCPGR
T2 sequence (P00750 311-562 limits assumed): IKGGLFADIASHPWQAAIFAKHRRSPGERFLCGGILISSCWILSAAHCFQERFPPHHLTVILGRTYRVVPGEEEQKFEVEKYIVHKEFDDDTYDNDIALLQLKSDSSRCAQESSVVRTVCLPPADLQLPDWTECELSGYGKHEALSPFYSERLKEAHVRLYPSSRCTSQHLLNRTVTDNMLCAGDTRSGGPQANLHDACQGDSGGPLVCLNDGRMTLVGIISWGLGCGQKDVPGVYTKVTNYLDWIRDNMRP
T2 sequence (P00750 36-310 limits assumed): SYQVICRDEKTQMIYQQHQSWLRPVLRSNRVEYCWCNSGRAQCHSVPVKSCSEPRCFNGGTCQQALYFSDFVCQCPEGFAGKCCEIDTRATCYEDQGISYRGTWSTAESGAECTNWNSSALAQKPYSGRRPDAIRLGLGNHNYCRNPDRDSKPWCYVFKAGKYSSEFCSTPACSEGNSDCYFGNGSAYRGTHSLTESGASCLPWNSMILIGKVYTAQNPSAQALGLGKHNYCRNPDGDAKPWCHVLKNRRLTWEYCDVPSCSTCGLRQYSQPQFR

In the case of `CCc1cccc2sc(C(=N)N)cc12.Cl` [Compound 7, 4-Ethylbenzo[b]thiophene-2-carboxamidine hydrochloride], on urokinase, the IC50 was 0.7 µM. On human two-chain tPA, the tPA/UPA ratio came to 263 and the 50% inhibitory concentration (IC50) was found to be 184 µM. Besides, on human plasmin, the PLM/uPA ratio is 610 and the concentration for half-maximal inhibition (IC50) came to 427 µM.

For the compound `CCCc1cccc2sc(C(=N)N)cc12.Cl` [Compound 9, 4-Propylbenzo[b]thiophene-2-carboxamidine hydrochloride], the IC50 at urokinase was 0.66 µM. On human two-chain tPA, the tPA/UPA ratio is reported as 250 and the half-maximal inhibitory concentration (IC50) amounted to 165 µM. Further, at human plasmin, the PLM/uPA ratio is listed as 902 and the IC50 was 595 µM.

As to `CCCCc1cccc2sc(C(=N)N)cc12.Cl` [Compound 10, 4-Butylbenzo[b]thiophene-2-carboxamidine hydrochloride], the IC50 on urokinase is 0.42 µM. On human two-chain tPA, the tPA/UPA ratio was found to be 352 and the IC50 was 148 µM. Moreover, on human plasmin, the PLM/uPA ratio stood at 907 and the IC50 came out at 381 µM.

For the compound `CC(C)CCc1cccc2sc(C(=N)N)cc12.Cl` [Compound 12, 4-(3-Methylbutyl)benzo[b]thiophene-2-carboxamidine hydrochloride], the IC50 at urokinase amounted to 0.34 µM. Also, at human two-chain tPA, the tPA/UPA ratio is given as 279 and the IC50 was 95 µM. On human plasmin, the PLM/uPA ratio was 847 and the IC50 amounted to 288 µM.

Regarding `CCCCCCc1cccc2sc(C(=N)N)cc12.Cl` [Compound 13, 4-(Hexyl)benzo[b]thiophene-2-carboxamidine hydrochloride], the IC50 came out at 0.42 µM at urokinase, 90 µM at human two-chain tPA and 195 µM at human plasmin. Also, the tPA/UPA ratio on human two-chain tPA is 214. On human plasmin, the PLM/uPA ratio is on record as 464.

Take `C=Cc1cccc2sc(C(=N)N)cc12.Cl` [Compound 17, 4-Ethenylbenzo[b]thiophene-2-carboxamidine hydrochloride]: the IC50 on urokinase amounted to 1.4 µM. Besides, on human two-chain tPA, the tPA/UPA ratio amounted to 6.3 and the concentration for half-maximal inhibition (IC50) was determined as 8.6 µM. At human plasmin, the PLM/uPA ratio stood at 42 and the IC50 was found to be 57 µM.

In the case of `C=CCc1cccc2sc(C(=N)N)cc12.Cl` [Compound 19, 4-(Prop-2-enyl)benzo[b] thiophene-2-carboxamidine hydrochloride], at urokinase, the IC50 amounted to 0.45 µM. At human two-chain tPA, the tPA/UPA ratio stood at 127 and the IC50 worked out at 57 µM. Moreover, at human plasmin, the PLM/uPA ratio is 1120 and the IC50 stood at 505 µM.

On to `CC(C)/C=C/c1cccc2sc(C(=N)N)cc12.Cl` [Compound 23, 4-(E-3-Methylbut-1-enyl)benzo[b]thiophene-2-carboxamidine hydrochloride], for which the values for the IC50 on urokinase, on human two-chain tPA and at human plasmin were 0.13 µM, 41 µM and 629 µM, respectively. In addition, the tPA/UPA ratio at human two-chain tPA was 315. For the same compound, the PLM/uPA ratio on human plasmin was 4838.

`CCC/C=C/c1cccc2sc(C(=N)N)cc12.Cl` [Compound 25, 4-(E-Pent-1-enyl)benzo[b]thiophene-2-carboxamidine hydrochloride]: the IC50 on urokinase was 0.14 µM. On human two-chain tPA, the tPA/UPA ratio was 343 and the IC50 is 48 µM. Also, at human plasmin, the PLM/uPA ratio amounted to 1471 and the concentration for half-maximal inhibition (IC50) was found to be 206 µM.

`CCCCC=Cc1cccc2sc(C(=N)N)cc12` [Compound 29, 4-(E/Z-Hex-1-enyl)benzo[b]thiophene-2-carboxamidine hydrochloride]: the figures for the IC50 at urokinase, on human two-chain tPA and at human plasmin were 0.34 µM, 85 µM and 244 µM, respectively. In addition, the tPA/UPA ratio on human two-chain tPA turned out to be 250. Moreover, the PLM/uPA ratio on human plasmin turned out to be 718.

In the case of `C#Cc1cccc2sc(C(=N)N)cc12.Cl` [Compound 39, 4-Ethynylbenzo[b]thiophene-2-carboxamidine hydrochloride], on urokinase, the IC50 was 0.66 µM. On human two-chain tPA, the tPA/UPA ratio was determined as 436 and the IC50 worked out at 288 µM. On human plasmin, the PLM/uPA ratio is 661 and the IC50 amounted to 704 µM.

For the compound `Cl.N=C(N)c1cc2c(-c3ccccc3)cccc2s1` [Compound 44, 4-Phenylbenzo[b]thiophene-2-carboxamidine hydrochloride], the IC50 at urokinase was determined as 1.1 µM. Also, on human two-chain tPA, the tPA/UPA ratio worked out at 58 and the 50% inhibitory concentration (IC50) is 64 µM. Further, on human plasmin, the PLM/uPA ratio came to 800 and the IC50 turned out to be 881 µM.

Regarding `Cl.Cl.N=C(N)c1cc2c(-c3cccnc3)cccc2s1` [Compound 48, 4-(Pyrid-3-yl)benzo[b]thiophene-2-carboxamidine bis-hydrochloride], the IC50 at urokinase stood at 0.56 µM. In addition, at human two-chain tPA, the tPA/UPA ratio is on record as 152 and the IC50 was 85 µM. Further, on human plasmin, the PLM/uPA ratio is 609 and the half-inhibitory concentration (IC50) came to 341 µM.

Regarding `Cl.N=C(N)c1cc2c(-c3ccco3)cccc2s1` [Compound 49, 4-(Furan-2-yl)benzo[b]thiophene-2-carboxamidine hydrochloride], the IC50 at urokinase stood at 0.36 µM. At human two-chain tPA, the tPA/UPA ratio came to 53 and the IC50 turned out to be 19 µM. On human plasmin, the PLM/uPA ratio came to 1000 and the IC50 is 360 µM.

Take `Cl.N=C(N)c1cc2c(-c3cccs3)cccc2s1` [Compound 50, 4-(Thien-2-yl)benzo[b]thiophene-2-carboxamidine hydrochloride]: on urokinase, the IC50 stood at 0.5 µM. In addition, on human two-chain tPA, the tPA/UPA ratio is 56 and the IC50 is 28 µM. Further, on human plasmin, the PLM/uPA ratio was 762 and the IC50 turned out to be 381 µM.

As for `Cl.N=C(N)c1cc2c(-c3cc4ccccc4o3)cccc2s1` [Compound 51, 4-(Benzo[b]furan-2-yl)benzo[b]thiophene-2-carboxamidine hydrochloride], the IC50 stood at 0.56 µM on urokinase, 112 µM at human two-chain tPA and 745 µM at human plasmin. In addition, the tPA/UPA ratio at human two-chain tPA amounted to 200. The PLM/uPA ratio on human plasmin was 1330.

As to `N=C(N)c1ccc(-c2ccc(-c3cccc4sc(C(=N)N)cc34)o2)cc1` [Compound 53, 4-[5-(4-carboxamidinophenyl)fur-2-yl]benzo[b]thiophene-2-carboxamidine bis-hydrochloride], the IC50 was 0.092 µM at urokinase, 4.1 µM on human two-chain tPA and 47 µM on human plasmin. The tPA/UPA ratio on human two-chain tPA came out at 45. For the same compound, on human plasmin, the PLM/uPA ratio turned out to be 511.

With `Cl.N=C(N)c1cc2c(CO)cccc2s1` [Compound 56, 4-(Hydroxymethyl)benzo[b]thiophene-2-carboxamidine hydrochloride], the IC50 on urokinase is 0.88 µM. Also, at human two-chain tPA, the tPA/UPA ratio was found to be 640 and the IC50 was 563 µM. For the same compound, on human plasmin, the PLM/uPA ratio is not below 1500 and the inhibition at 1000 µM is 67%.

As for `CSc1cccc2sc(C(=N)N)cc12.Cl` [Compound 58, 4-(Methylthio)benzo[b]thiophene-2-carboxamidine hydrochloride], the IC50 at urokinase was determined as 0.56 µM. Moreover, at human two-chain tPA, the tPA/UPA ratio was found to be 413 and the IC50 worked out at 231 µM. Besides, at human plasmin, the PLM/uPA ratio was determined as 954 and the IC50 is 534 µM.

For the compound `N=C(N)c1cc2c(C=Cc3ccccc3)cccc2s1` [Compound 63, 4-(E/Z-2-Phenylethenyl)benzo[b]thiophene-2-carboxamidine hydrochloride], the IC50 on urokinase was 0.14 µM. On human two-chain tPA, the tPA/UPA ratio amounted to 86 and the IC50 is 12 µM. For the same compound, on human plasmin, the PLM/uPA ratio is 1250 and the IC50 turned out to be 175 µM.

Regarding `N=C(N)c1cc2cc(-c3cc4ccccc4s3)ccc2s1` [Compound 128, 5-(Benzo[b]thien-2-yl)benzo[b]thiophene-2-carboxamidine hydrochloride], on urokinase, the IC50 came to 0.94 µM.

In the case of `N=C(N)c1ccc(/C=C/c2cc3ccc4sc(C(=N)N)cc4c3s2)cc1` [Compound 209, 5-[E-2-(4-Carboxamidinophenyl)ethenyl]thieno[4,5-b]benzo[b]thiophene-2-carboxamidine bis-hydrochloride], the IC50 at urokinase came out at 0.27 µM.

As to `Cl.N=C(N)c1cc2ccsc2s1` [Compound 321, Thieno[2,3-b]thiophene-2-carboxamidine hydrochloride], the residual urokinase activity at 1000 µM in assay [1] amounted to 4.1%. For the same compound, the inhibition at 1000 µM was found to be 74% on human two-chain tPA (1 mM inhibitor, read-out: tPA activity observed relative to inhibitor-free controls) and 88% on human plasmin (1 mM inhibitor). In addition, the tPA/UPA ratio on human two-chain tPA is listed as not below 500. Further, on human plasmin, the PLM/uPA ratio is recorded as not below 1000.

The record behind these values is patent publication US5340833A, “Urokinase inhibitors” (Eisai Co., Ltd., priority 1992, dated 1994).
